Values quoted from earlier work as cited in US7442558B2, “Phthalamide-lanthanide complexes for use as luminescent markers” (The Regents of the University of California, priority 1999, dated 2008).
“And” between values parts separate entries of the source, which are not always exact repeats. Equal entries are not always repeated. Structures can show the parent of a compound that is named as a salt.

Details: in 0.05 M H2SO4; reference standard; cited from earlier work

C=C[C@H]1C[N@@]2CC[C@H]1C[C@H]2[C@H](O)c1ccnc2ccc(OC)cc12 [quinine sulfate]
absolute quantum yield: 0.54 and 0.5460
